{"source": "patent US5672715A", "about": "“Herbicidal substituted 3-aryl-pyrazoles” (Monsanto Company, priority 1995, dated 1997)", "assay_type_in_all_cases": "in vivo", "key": {"[1]": {"tested_on": "Soybean", "assay": "pre-emergence herbicide test", "conditions": "Glycine max, pre-emergence, read-out: % plant inhibition", "how_it_was_run": "(§1)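 Soil-applied pre-emergence screen: compound added to cover topsoil over sown seeds, pans held on greenhouse bench with subirrigation, % inhibition scored ~2 weeks later.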"}, "[2]": {"tested_on": "Barnyardgrass", "assay": "pre-emergence herbicide test", "conditions": "Echinochloa crus-galli, pre-emergence, read-out: % plant inhibition", "how_it_was_run": "as §1"}, "[3]": {"tested_on": "Morning Glory", "assay": "pre-emergence herbicide test", "conditions": "Ipomoea, pre-emergence, read-out: % plant inhibition", "how_it_was_run": "as §1"}, "[4]": {"tested_on": "Yellow Foxtail", "assay": "pre-emergence herbicide test", "conditions": "Setaria, read-out: % plant inhibition", "how_it_was_run": "as §1"}, "[5]": {"tested_on": "Rice", "assay": "pre-emergence herbicide test", "conditions": "Oryza sativa, read-out: % plant inhibition", "how_it_was_run": "as §1"}, "[6]": {"tested_on": "Cocklebur", "assay": "pre-emergence herbicide test", "conditions": "Xanthium strumarium, pre-emergence, read-out: % plant inhibition", "how_it_was_run": "as §1"}, "[7]": {"tested_on": "Velvetleaf", "assay": "pre-emergence herbicide test", "conditions": "Abutilon theophrasti, pre-emergence, read-out: % plant inhibition", "how_it_was_run": "as §1"}, "[8]": {"tested_on": "Corn", "assay": "pre-emergence herbicide test", "conditions": "Zea mays, pre-emergence, read-out: % plant inhibition", "how_it_was_run": "as §1"}, "[9]": {"tested_on": "Yellow Nutsedge", "assay": "pre-emergence herbicide test", "conditions": "Cyperus, read-out: % plant inhibition", "how_it_was_run": "as §1"}, "[10]": {"tested_on": "Morning Glory", "assay": "post-emergence herbicide test", "conditions": "Ipomoea, post-emergence, read-out: % plant inhibition", "how_it_was_run": "(§2)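 Greenhouse pot test: seeds pressed into compacted topsoil in pans, covered, watered as needed; at two to three weeks plants were sprayed by atomizer at 170.3 kPa, 1870 L/Ha, with about 0.4% v/v emulsifier. Value is percent inhibition per species.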"}, "[11]": {"tested_on": "Yellow Foxtail", "assay": "post-emergence herbicide test", "conditions": "Setaria, read-out: % plant inhibition", "how_it_was_run": "as §2"}, "[12]": {"tested_on": "Blackgrass", "assay": "post-emergence herbicide test", "conditions": "Alopecurus myosuroides, post-emergence, read-out: % plant inhibition; for inhibition at 200.072 g/ha: 0.1785 lb/A; for inhibition at 1000.92 g/ha: 0.893 lb/A; for inhibition at 5043.82 g/ha: 4.5 lb/A", "how_it_was_run": "as §2"}, "[13]": {"tested_on": "Velvetleaf", "assay": "post-emergence herbicide test", "conditions": "Abutilon theophrasti, post-emergence, read-out: % plant inhibition", "how_it_was_run": "as §2"}, "[14]": {"tested_on": "Common Chickweed", "assay": "post-emergence herbicide test", "conditions": "post-emergence, read-out: % plant inhibition", "how_it_was_run": "as §2"}, "[15]": {"tested_on": "Corn", "assay": "post-emergence herbicide test", "conditions": "Zea mays, post-emergence, read-out: % plant inhibition", "how_it_was_run": "as §2"}, "[16]": {"tested_on": "Yellow Nutsedge", "assay": "post-emergence herbicide test", "conditions": "Cyperus, read-out: % plant inhibition", "how_it_was_run": "as §2"}}, "note": "Like-named read-outs stand apart in the source and are kept apart here."}
{"smiles": "Cn1nc(-c2cc(F)ccc2F)c(C=O)c1C(F)(F)F", "note": "[Compound 34]", "values": [{"measurement": "inhibition at 200.072 g/ha", "setting": "[1]; 0.1785 lb/A", "value": 0, "unit": "%"}, {"measurement": "inhibition at 1000.92 g/ha", "setting": "[1]; 0.893 lb/A", "value": 0, "unit": "%"}, {"measurement": "inhibition at 5043.82 g/ha", "setting": "[1]; 4.5 lb/A", "value": 0, "unit": "%"}, {"measurement": "inhibition at 200.072 g/ha", "setting": "[2]; 0.1785 lb/A", "value": 0, "unit": "%"}, {"measurement": "inhibition at 1000.92 g/ha", "setting": "[2]; 0.893 lb/A", "value": 0, "unit": "%"}, {"measurement": "inhibition at 5043.82 g/ha", "setting": "[2]; 4.5 lb/A", "value": 0, "unit": "%"}, {"measurement": "inhibition at 200.072 g/ha", "setting": "[3]; 0.1785 lb/A", "value": 0, "unit": "%"}, {"measurement": "inhibition at 1000.92 g/ha", "setting": "[3]; 0.893 lb/A", "value": 0, "unit": "%"}, {"measurement": "inhibition at 5043.82 g/ha", "setting": "[3]; 4.5 lb/A", "value": 0, "unit": "%"}, {"measurement": "inhibition at 200.072 g/ha", "setting": "[4]; 0.1785 lb/A", "value": 0, "unit": "%"}, {"measurement": "inhibition at 1000.92 g/ha", "setting": "[4]; 0.893 lb/A", "value": 0, "unit": "%"}, {"measurement": "inhibition at 5043.82 g/ha", "setting": "[4]; 4.5 lb/A", "value": 20, "unit": "%"}, {"measurement": "inhibition at 200.072 g/ha", "setting": "[5]; 0.1785 lb/A", "value": 0, "unit": "%"}, {"measurement": "inhibition at 1000.92 g/ha", "setting": "[5]; 0.893 lb/A", "value": 0, "unit": "%"}, {"measurement": "inhibition at 5043.82 g/ha", "setting": "[5]; 4.5 lb/A", "value": 0, "unit": "%"}, {"measurement": "inhibition at 200.072 g/ha", "setting": "[6]; 0.1785 lb/A", "value": 0, "unit": "%"}, {"measurement": "inhibition at 1000.92 g/ha", "setting": "[6]; 0.893 lb/A", "value": 0, "unit": "%"}, {"measurement": "inhibition at 5043.82 g/ha", "setting": "[6]; 4.5 lb/A", "value": 0, "unit": "%"}, {"measurement": "inhibition at 200.072 g/ha", "setting": "[7]; 0.1785 lb/A", "value": 0, "unit": "%"}, {"measurement": "inhibition at 1000.92 g/ha", "setting": "[7]; 0.893 lb/A", "value": 15, "unit": "%"}, {"measurement": "inhibition at 5043.82 g/ha", "setting": "[7]; 4.5 lb/A", "value": 75, "unit": "%"}, {"measurement": "inhibition at 200.072 g/ha", "setting": "[8]; 0.1785 lb/A", "value": 0, "unit": "%"}, {"measurement": "inhibition at 1000.92 g/ha", "setting": "[8]; 0.893 lb/A", "value": 0, "unit": "%"}, {"measurement": "inhibition at 5043.82 g/ha", "setting": "[8]; 4.5 lb/A", "value": 0, "unit": "%"}, {"measurement": "inhibition at 200.072 g/ha", "setting": "[9]; 0.1785 lb/A", "value": 0, "unit": "%"}, {"measurement": "inhibition at 1000.92 g/ha", "setting": "[9]; 0.893 lb/A", "value": 0, "unit": "%"}, {"measurement": "inhibition at 5043.82 g/ha", "setting": "[9]; 4.5 lb/A", "value": 20, "unit": "%"}, {"measurement": "inhibition at 200.072 g/ha", "setting": "[10]; 0.1785 lb/A", "value": 0, "unit": "%"}, {"measurement": "inhibition at 1000.92 g/ha", "setting": "[10]; 0.893 lb/A", "value": 0, "unit": "%"}, {"measurement": "inhibition at 5043.82 g/ha", "setting": "[10]; 4.5 lb/A", "value": 55, "unit": "%"}, {"measurement": "inhibition at 200.072 g/ha", "setting": "[11]; 0.1785 lb/A", "value": 0, "unit": "%"}, {"measurement": "inhibition at 1000.92 g/ha", "setting": "[11]; 0.893 lb/A", "value": 0, "unit": "%"}, {"measurement": "inhibition at 5043.82 g/ha", "setting": "[11]; 4.5 lb/A", "value": 0, "unit": "%"}, {"measurement": "inhibition at 200.072 g/ha", "setting": "[12]; Table 4a", "value": 0, "unit": "%"}, {"measurement": "inhibition at 200.072 g/ha", "setting": "[12]; Table 5a", "value": 0, "unit": "%"}, {"measurement": "inhibition at 1000.92 g/ha", "setting": "[12]; Table 4a", "value": 0, "unit": "%"}, {"measurement": "inhibition at 1000.92 g/ha", "setting": "[12]; Table 5a", "value": 0, "unit": "%"}, {"measurement": "inhibition at 5043.82 g/ha", "setting": "[12]; Table 4a", "value": 0, "unit": "%"}, {"measurement": "inhibition at 5043.82 g/ha", "setting": "[12]; Table 5a", "value": 30, "unit": "%"}, {"measurement": "inhibition at 200.072 g/ha", "setting": "[13]; 0.1785 lb/A", "value": 0, "unit": "%"}, {"measurement": "inhibition at 1000.92 g/ha", "setting": "[13]; 0.893 lb/A", "value": 0, "unit": "%"}, {"measurement": "inhibition at 5043.82 g/ha", "setting": "[13]; 4.5 lb/A", "value": 20, "unit": "%"}, {"measurement": "inhibition at 200.072 g/ha", "setting": "[14]; 0.1785 lb/A", "value": 0, "unit": "%"}, {"measurement": "inhibition at 1000.92 g/ha", "setting": "[14]; 0.893 lb/A", "value": 0, "unit": "%"}, {"measurement": "inhibition at 5043.82 g/ha", "setting": "[14]; 4.5 lb/A", "value": 0, "unit": "%"}, {"measurement": "inhibition at 200.072 g/ha", "setting": "[15]; 0.1785 lb/A", "value": 0, "unit": "%"}, {"measurement": "inhibition at 1000.92 g/ha", "setting": "[15]; 0.893 lb/A", "value": 0, "unit": "%"}, {"measurement": "inhibition at 5043.82 g/ha", "setting": "[15]; 4.5 lb/A", "value": 15, "unit": "%"}, {"measurement": "inhibition at 200.072 g/ha", "setting": "[16]; 0.1785 lb/A", "value": 0, "unit": "%"}, {"measurement": "inhibition at 1000.92 g/ha", "setting": "[16]; 0.893 lb/A", "value": 0, "unit": "%"}, {"measurement": "inhibition at 5043.82 g/ha", "setting": "[16]; 4.5 lb/A", "value": 0, "unit": "%"}]}
